The nature of this data set: gradient 5% acetonitrile 3 min, to 50% in 2 min, to 85% in 15 min, held 3 min, 100 µL/min. The following applies: column: Zorbax Extend-C18 2.1 x 50 mm; eluents: water / acetonitrile, 0.1% formic acid. Put shortly: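 Mixtures of ~100 pure standards were chromatographed on a Zorbax Extend-C18 column (2.1 × 50 mm, 1.8 μm) at 100 μL/min using water and acetonitrile, each with 0.1% formic acid. Detection used a quadrupole time-of-flight mass spectrometer in positive and negative ionization mode, and data collection spanned 3 months. Retention time was obtained from adduct peaks picked computationally and each checked manually.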
On to `CCOC(=O)c1cn(CC(=O)N2CCOc3ccc(C)cc32)c2nc(C)ccc2c1=O`, for which the RP-LC retention time stood at 836 s.

As to `C#C[C@]1(O)CC[C@H]2[C@@H]3CCC4=Cc5oncc5CC4(C)[C@H]3CCC21C` (stereo partly specified), the RP-LC retention time is 1180 s.

As to `CCCNC(=O)c1cnn(-c2ccc(SCC)nn2)c1C`, the RP-LC retention time is 777 s.

Molecule `Cc1nc(-c2cc3ccccc3nc2N2CCN(Cc3ccccc3)CC2)no1` came in with an RP-LC retention time of 715 s.

`O=C(Nc1ccccc1C(F)(F)F)C1CCCN(c2ccc(=O)n(-c3cccc(Cl)c3)n2)C1` (stereo unspecified) returned an RP-LC retention time of 971 s.

In turn, `CCn1nccc1-c1cccc(-c2noc(CNC(=O)c3ccccc3)n2)c1` displayed an RP-LC retention time of 874 s.

On to `O=C(NC1CCCCCCC1)C1CCN(S(=O)(=O)c2cc(C(=O)N3CCCC3)cs2)CC1`, for which the RP-LC retention time is 902 s.

Consider `Cn1c(=O)c(N2CCN(S(=O)(=O)c3ccc4c(c3)CCCC4)CC2)nc2ccncc21`, for which the RP-LC retention time was found to be 765 s.

The molecule `O=C(NCC1CCCO1)c1nnn(-c2ccccc2Cl)c1-c1ccncc1` (stereo unspecified) displayed an RP-LC retention time of 693 s.

In turn, `O=C(C1CCCN(Cc2nc(-c3ccncc3)no2)C1)N1CCN(c2ncccn2)CC1` (stereo unspecified) returned an RP-LC retention time of 559 s.

Molecule `Cc1ccc(C(=O)N2CCC(CC(=O)NCCc3c[nH]c4ccc(Cl)cc34)CC2)cc1` registered an RP-LC retention time of 828 s.

For `Cc1cccc(Cn2c(=O)n(CCNC(=O)C(C)C)c3ncccc32)c1`, the RP-LC retention time was found to be 769 s.

`COc1ccc(NC(=O)CCC2CCN(c3cc(NC4CC4)ncn3)CC2)c(OC)c1` showed an RP-LC retention time of 688 s.

Molecule `Cc1csc(-c2cc(S(=O)(=O)NCc3ccc(N(C)C)cc3)c(C)s2)n1` returned an RP-LC retention time of 763 s.

`Cc1ccc(NS(=O)(=O)c2cccnc2Nc2ccc(Cl)cc2)cc1` gave an RP-LC retention time of 1170 s.

With `CC(C)(C)OC(=O)NCc1nnc(C(F)(F)F)n1-c1ccccc1`, the RP-LC retention time came out at 773 s.

`O=C(Cn1ncc2c(N3CCN(c4ccccn4)CC3)ncnc21)N1CCN(c2ccccc2)CC1` registered an RP-LC retention time of 603 s.

With `COC(=O)c1ccc(NC(=O)N2[C@H]3CC[C@@H]2c2cnc(-c4ccc(F)cc4)nc2C3)cc1`, the RP-LC retention time is 993 s.

As to `CCC(C)n1ncn(-c2ccc(N3CCN(c4ccc(OC[C@@H]5CO[C@@](Cn6cncn6)(c6ccc(Cl)cc6Cl)O5)cc4)CC3)cc2)c1=O` (stereo partly specified), the RP-LC retention time came out at 1060 s.

`CSc1ccc(-c2nc3cnccn3c2Nc2cccc(C(F)(F)F)c2)cc1` registered an RP-LC retention time of 1020 s.

For `CN(C)C(CNS(=O)(=O)c1cc(Cl)ccc1Cl)c1cccs1` (stereo unspecified), the RP-LC retention time is 591 s.

As to `CCN(C(=O)c1nc(C)n(C2CCN(S(C)(=O)=O)CC2)c1C)c1ccccc1`, the RP-LC retention time amounted to 610 s.

In turn, `CN(C)c1ccc2ncc(=O)n(C)c2n1` had an RP-LC retention time of 728 s.

Regarding `CCCn1c(=O)c(C)nc2cc(-c3noc(C4CC(=O)N(c5cccc(Cl)c5)C4)n3)ccc21` (stereo unspecified), the RP-LC retention time is 1050 s.

With `CCc1ccc(S(=O)(=O)Nc2cc(-c3cn4ccccc4n3)ccc2C)cc1`, the RP-LC retention time turned out to be 695 s.

`O=C(c1ccccc1Cl)N(CCc1ccccc1)Cc1ccccn1`: the RP-LC retention time came to 790 s.

`COc1cc([C@@H]2c3cc4c(cc3[C@H](O)[C@@H](CO)[C@@H]2C(=O)NCC(C)C)OCO4)cc(OC)c1OC` returned an RP-LC retention time of 668 s.

`CCOc1ccc(C2Cn3nnc(-c4nc(-c5ccc(C)c(C)c5)no4)c3CO2)cc1` (stereo unspecified) returned an RP-LC retention time of 1290 s.

In turn, `O=C(c1c[nH]c2ncccc12)N1CCCCCC1` displayed an RP-LC retention time of 646 s.

Take `Cc1ccc(-n2nc(N3CCCN(S(=O)(=O)c4ccccc4F)CC3)ccc2=O)cc1`: the RP-LC retention time was determined as 860 s.

Take `COc1ccc2c(c1)OC1(C)CC2C(S(=O)(=O)c2ccc(C)c(C)c2)C(=O)N1C` (stereo unspecified): the RP-LC retention time came to 1030 s.
